This note sets out measurements from US6391890B1, “Heterocyclic compounds” (Novo Nordisk A/S, priority 1997, dated 2002).

Structures can show the parent of a compound that is named as a salt.

In data set [1] the test system is histamine induced paw oedema. As to the kind of experiment: Histamine induced paw oedema (rat, water plethysmography). In kind it is in vivo. The note with it: 1.0 mg/kg intraperitoneally, male Sprague-Dawley rats, paw swelling 20 minutes after histamine. As to the method:
I. Histamine Induced Paw Oedema The rat histamine paw oedema test was performed essentially as described by Amann et al. (Europ. J. Pharmacol. 279, 227-231, 1995). In brief 250-300 g male Sprague-Dawley rats were anaesthetized with pentobarbital sodium, and placed on a 32 degree heated table. Ten minutes later histamine (50 micoliter, 3 mg/ml) was injected in the right hind paw and 20 minutes hereafter the paw swelling was determined by water plethysmography (Ugo Basile). Test compounds were administered intraperitoneally at 15 minutes before the anaesthetics.

The test system of data set [2] is histamine induced blood glucose rise. In words: Histamine induced hyperglycemia in mice. Format: in vivo. The note with it: 1.0 mg/kg ip 30 min before histamine icv, male NMRI mice, blood glucose at 40 min. As to the method:
II. Histamine Induced Hyperglycemia in Mice
Conscious unfasted 25 g male NMRI mice are administered histamine chloride (90 nmol) icv according to the method of Nishibori et al. (J. Pharmacol. Exp. Therap. 241, 582-286,1987). Blood glucose is determined at time 0 and 40 min after the histamine injection. Test compounds are administered at 1.0 mg/kg ip 30 min before the histamine injection, and % inhibition refers to the capacity of the compounds to inhibit the histamine induced blood glucose rise.

In the case of `Cl.O=C(O)CCN1CCN(C2c3ccccc3CCc3ccccc32)CC1` [Example 2, 3-(4-(10,11-Dihydro-5H-dibenzo[a,d]cyclohepten-5-yl)piperazin-1-yl)propionic acid hydrochloride], the “Inhibition of histamine induced paw oedema, % inhibition” value in data set [1] amounted to 44%.

In the case of `Cl.O=C(O)CCN1CCC(=C2c3ccccc3CCc3ccccc32)CC1` [Example 10, 3-(4-(10,11-Dihydro-5H-dibenzo[a,d]cyclohepten-5-ylidene)-1-piperidine)propionic acid hydrochloride], the “Inhibition of histamine induced paw oedema, % inhibition” value in data set [1] came out at 33%. For the same compound, the “Inhibition of histamine induced hyperglycemia, % inhibition” value in data set [2] amounted to 69%.

Take `Cl.O=C(O)CCN1CCC(=C2c3ccccc3CSc3ccccc32)CC1`: the melting point is 176 to 186 °C (dec.).

With `Cl.O=C(O)CN1CCC(=C2c3ccccc3CSc3ccccc32)CC1`, the melting point was 170 to 175 °C.

In turn, `O=C(O)[C@@H]1CCCN(CCN2CCC(=C3c4ccccc4CSc4ccccc43)CC2)C1` (as salt: hydrochloride) displayed a melting point of 127 to 130 °C.

`O=C(O)C1CCCN(CCCN2CCC(=C3c4ccccc4CSc4ccccc43)CC2)C1` (stereo not shown) (as salt: hydrochloride): the melting point was 245 to 255 °C (dec.).

Broadly, the melting point is the temperature, or range, at which the solid turns liquid.
